According to PMC12649549, “Sequence Permutation Generated Lysine and Tryptophan-Rich Antimicrobial Peptides with Enhanced Therapeutic Index” (Antibiotics, 2025):

Each substance was assayed on Pseudomonas aeruginosa Migula (ATCC 27853) (assay: not given). Settings: LYM broth, 0.5 mM MgCl2.
Procedure: (§1) The antibacterial and salt-resistant activity of the peptides was tested using Escherichia coli (ATCC 25922), Pseudomonas aeruginosa Migula (ATCC 27853), Acinetobacter sp. (BCRC number 14B0091, BCRC number 14B0097, and BCRC number 14B0100), and Staphylococcus aureus sp. strains (ATCC 25923, ATCC 33591, ATCC 33592, ATCC 33593, and ATCC 6538). All bacteria were obtained from the Food Industry Research and Development Institute (Hsinchu, Taiwan) and cultured in sterilized Müller-Hinton (MH) broth at 37 °C and 200 rpm for 8 h. The inoculum concentrations were determined by measuring the optical density at 600 nm (OD 600 = 1, approximately 10^8 CFU/mL) using an Ultrospec 2100 pro UV-Visible spectrophotometer (Biochrom Ltd., Cambridge, UK) after 8 h of culture.
(§2) The antibacterial activities of the peptides in Müller-Hinton (MH) broth and modified LYM broth were determined using the standard broth microdilution method as per Clinical and Laboratory Standards Institute (CLSI) guidelines. The LYM broth was prepared with specific components and adjusted to different conditions, including varying concentrations of NaCl and MgCl2, and different pH levels. To prepare the LYM broth, 5.4 mM KCl, 5.6 mM Na2HPO4, 0.5 mM MgSO4, and 1.0 mM sodium citrate were added. Additionally, 0.4 mg of ZnCl2, 2.0 mg of FeCl3·6H2O, 0.1 mg of CuSO4·5H2O, 0.1 mg of MnSO4·H2O, 0.1 mg of Na2B4O7∙10H2O, 700 mg of amino acid mixtures without tryptophan (Takara Bio Inc., San Jose, CA, USA), and 20 mg of L-tryptophan were added per liter of medium. The pH was adjusted to 7.4, and a vitamin mixture (100X, Sigma) and glucose concentration of 2% were added. For different conditions of LYM broth, NaCl concentrations of 300, 200, 150, and 50 mM, MgCl2 concentrations of 2.5, 1.5, and 0.5 mM, and pH levels of 6.5, 5.5, and 4.5 were adjusted. Bacterial strains were incubated in MH broth overnight, regrown, and diluted to a final concentration of 5 × 10^5 CFU/mL. Peptides were added to each well at final concentrations of 50, 25, 12.5, 6.25, 3.13, 1.56, and 0.78 µg/mL, and 99 µL of diluted microbes was loaded into each well of a polypropylene 96-well plate. […] The Morpheus HeatMap software (https://software.broadinstitute.org/morpheus/) was used to display MIC values on a color scale. All experiments were independently repeated three times.
For Ac-KWRKWLKWLAKKK-NH2 [Peptide W5K01], the MIC was 3.13 µg/mL.

Same assay, conditions: LYM broth, 1.5 mM MgCl2
Work on Ac-KWRKWLKWLAKKK-NH2 [Peptide W5K01] yielded an MIC of 6.25 µg/mL.

Same assay, conditions: LYM broth, 2.5 mM MgCl2
Work on Ac-KWRKWLKWLAKKK-NH2 [Peptide W5K01] yielded an MIC of 12.5 µg/mL.

Same assay, conditions: LYM broth, 50 mM NaCl; 16 h, 37 °C
Work on Ac-KWRKWLKWLAKKK-NH2 [Peptide W5K01] yielded an MIC of 6.25 µg/mL.

Same assay, conditions: LYM broth, 100 mM NaCl; 16 h, 37 °C
Substance Ac-KWRKWLKWLAKKK-NH2 [Peptide W5K01] has an MIC of 12.5 µg/mL.

Same assay, conditions: LYM broth, 200 mM (NaCl); 16 h, 37 °C
In the case of Ac-KWRKWLKWLAKKK-NH2 [Peptide W5K01], the MIC is reported as over 50 µg/mL.

Same assay, conditions: LYM broth, 300 mM (NaCl); 16 h, 37 °C
With Ac-KWRKWLKWLAKKK-NH2 [Peptide W5K01] the MIC was over 50 µg/mL.

Same assay, conditions: LYM broth, pH 4.5
Ac-KWRKWLKWLAKKK-NH2 [Peptide W5K01] gave an MIC of 3.13 µg/mL.

Same assay, conditions: LYM broth, pH 5.5
For Ac-KWRKWLKWLAKKK-NH2 [Peptide W5K01], the MIC was 3.13 µg/mL.

Same assay, conditions: LYM broth, pH 6.5
With Ac-KWRKWLKWLAKKK-NH2 [Peptide W5K01] the MIC was 1.56 µg/mL.

Same assay, conditions: MH broth; 5 × 10^5 CFU/mL, 16 h, 37 °C; repeated three times
With Ac-KWRKWLKWLAKKK-NH2 [Peptide W5K01] the MIC was 12.5 µg/mL.

What follows are substances tested on S. aureus ATCC 6538 (assay: not given). Settings: LYM broth, 0 mM NaCl; 16 h, 37 °C.
Procedure: as §1, §2
Substance Ac-KWRKWLKWLAKKK-NH2 [Peptide W5K01] has an MIC of 3.13 µg/mL.

Same assay, conditions: LYM broth, 0.5 mM MgCl2
With Ac-KWRKWLKWLAKKK-NH2 [Peptide W5K01] the MIC was 1.56 µg/mL.

Same assay, conditions: LYM broth, 1.5 mM MgCl2
In the case of Ac-KWRKWLKWLAKKK-NH2 [Peptide W5K01], the MIC is reported as 1.56 µg/mL.

Same assay, conditions: LYM broth, 2.5 mM MgCl2
Substance Ac-KWRKWLKWLAKKK-NH2 [Peptide W5K01] has an MIC of 3.13 µg/mL.

Same assay, conditions: LYM broth, 50 mM NaCl; 16 h, 37 °C
Work on Ac-KWRKWLKWLAKKK-NH2 [Peptide W5K01] yielded an MIC of 6.25 µg/mL.

Same assay, conditions: LYM broth, 100 mM NaCl; 16 h, 37 °C
In the case of Ac-KWRKWLKWLAKKK-NH2 [Peptide W5K01], the MIC is reported as 12.5 µg/mL.

Same assay, conditions: LYM broth, 200 mM (NaCl); 16 h, 37 °C
Work on Ac-KWRKWLKWLAKKK-NH2 [Peptide W5K01] yielded an MIC of 12.5 µg/mL.

Same assay, conditions: LYM broth, 300 mM (NaCl); 16 h, 37 °C
For Ac-KWRKWLKWLAKKK-NH2 [Peptide W5K01], the MIC was 25 µg/mL.

Same assay, conditions: LYM broth, pH 4.5
With Ac-KWRKWLKWLAKKK-NH2 [Peptide W5K01] the MIC was 3.13 µg/mL.

Same assay, conditions: LYM broth, pH 5.5
Substance Ac-KWRKWLKWLAKKK-NH2 [Peptide W5K01] has an MIC of 1.56 µg/mL.

Same assay, conditions: LYM broth, pH 6.5
Ac-KWRKWLKWLAKKK-NH2 [Peptide W5K01] was tested, and the MIC was 1.56 µg/mL.

Same assay, conditions: MH broth; 5 × 10^5 CFU/mL, 16 h, 37 °C; repeated three times
Ac-KWRKWLKWLAKKK-NH2 [Peptide W5K01] showed an MIC of 12.5 µg/mL.

What follows are substances tested on Gram-negative bacteria (assay: Geometric mean MIC and therapeutic index, Gram-negative bacteria). Settings: Gram-negative bacteria, MH broth; MIC >50 µg/mL counted as 100 µg/mL.
Assay type: cell-based
Procedure: In this study, we aimed to investigate the potential of W5K series peptides for therapeutic use. To evaluate their efficacy for antibacterial therapy, we used the Therapeutic Index (TI) as a measure of their cell selectivity. The TI was calculated as the ratio of the concentration causing 10% hemolysis of human red blood cells (HC10) to the geometric mean minimum inhibitory concentration (GM) of the peptides against both Gram-negative and Gram-positive bacteria. This parameter was used to quantitatively assess the balance between antibacterial potency and cytotoxicity among the W5K derivatives.
as §2
Ac-KWRKWLKWLAKKK-NH2 [Peptide W5K01] was tested, and the “GM G− (geometric mean of the MIC values)” value was 8.2 µg/mL.

Same assay, conditions: HC10/GM, Gram-negative bacteria
In the case of Ac-KWRKWLKWLAKKK-NH2 [Peptide W5K01], the “Therapeutic Index (TI) G−” value is reported as 8.6.
